{"source": "patent US10143691B2", "about": "“Pathogenic control of apoptosis” (CSIR, priority 2014, dated 2018)", "test_system": "lincRNAp21", "assay": "lincRNA-p21 expression by RNA FISH spot counts and quantitative RT-PCR", "assay_type": "cell-based, human", "conditions": "uninfected Ghost(3) cells, drug-treated, smFISH spot count and qRT-PCR", "method": "RNA FISH on Ghost(3) cells was performed according to Raj, 2008 and on primary macrophages according to Schaffer, 2013. For both methods 48 20mer probes (Biosearch) targeted to human lincRNAp21 were synthesised baring a […] C6dT. The amino group was subsequently conjugated to the following NHSester dyes: ATTO565, ATTO647N (ATTOTEC) or Alexa Fluor 647 (Invitrogen). Briefly, oligonucleotide probes were ethanol precipitated and resuspended in 0.1 M sodium tetraborate (Sigma). Approximately 0.3 mg of the NHSester dye (ATTOTEC) was dissolved in dimethyl sulphoxide (Sigma). The dye solution was added to the probe solution and incubated overnight in the dark at 37° C. Following the conjugation reaction, the probes were ethanol precipitated overnight, and resuspended in 0.1 M triethyl ammonium (Sigma). Conjugated probes were separated and purified to enrich for dyeconjugated probes by reverse phase HPLC on a C18 column. […]\nFor each experiment, Ghost(3) cells or IPSO-derived primary macrophages were infected or treated with 500 nM Doxorubicin over time and total RNA was extracted from cells using TRIzol® (Life Technologies), treated with RQ1 RNase-free DNase (Promega) and reverse transcribed using SuperScript III Reverse Transcriptase (Life Technologies). Quantitative RTPCR was performed using Sso Fast EvaGreen™ supermix (BioRad) on a BioRad CFX96 real-time PCR detection system. […]", "note": "Entries after “also recorded” stand apart in the source; their conditions may differ."}
{"compound": "COc1cccc2c1C(=O)c1c(O)c3c(c(O)c1C2=O)C[C@@](O)(C(=O)CO)C[C@@H]3O[C@H]1C[C@H](N)[C@H](O)[C@H](C)O1", "note": "[Doxorubicin]", "values": [{"measurement": "lincRNA-p21 expression", "result": "enhanced; also recorded: significantly increases lincRNAp21 expression over time"}]}
